The experiment addresses T1, SHP2 protein (Homo sapiens, UniProt Q06124).
T1 sequence (Q06124 1-593): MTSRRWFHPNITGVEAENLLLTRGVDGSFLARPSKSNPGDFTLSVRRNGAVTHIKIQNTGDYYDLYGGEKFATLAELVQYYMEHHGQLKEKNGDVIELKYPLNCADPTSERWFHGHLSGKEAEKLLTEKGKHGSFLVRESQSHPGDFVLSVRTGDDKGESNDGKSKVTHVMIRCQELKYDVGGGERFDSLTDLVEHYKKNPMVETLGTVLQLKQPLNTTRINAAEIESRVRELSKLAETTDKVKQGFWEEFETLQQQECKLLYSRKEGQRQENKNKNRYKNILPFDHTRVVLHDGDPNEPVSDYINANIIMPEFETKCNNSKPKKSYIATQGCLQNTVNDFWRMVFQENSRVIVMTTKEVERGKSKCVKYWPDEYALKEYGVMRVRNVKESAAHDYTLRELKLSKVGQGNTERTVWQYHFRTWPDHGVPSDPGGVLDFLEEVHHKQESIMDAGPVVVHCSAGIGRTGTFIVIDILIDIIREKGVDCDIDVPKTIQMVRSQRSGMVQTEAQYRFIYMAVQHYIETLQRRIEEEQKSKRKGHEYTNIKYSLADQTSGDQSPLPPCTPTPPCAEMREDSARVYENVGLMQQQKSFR
Description: Measurement of SHP2 protein degradation in MV-4-11 cells (western blotting). Particulars: harvested after 24 hours. Details: endogenous in cells. Type of experiment: cell-based. The method in brief:
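MV-4-11 cells in IMDM/5% FBS were exposed to compound at final 0.01, 0.1, 1 μM or 0.001, 0.01, 0.1 μM for 24 h, DMSO as negative control. BCA-normalised lysates were immunoblotted for SHP2 with GAPDH as loading control, read on LI-COR Odyssey.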
(In general: In western blotting, separated proteins are transferred to a membrane and probed.)

For the compound `Cc1ncsc1-c1ccc(CNC(=O)[C@@H]2C[C@@H](O)CN2C(=O)[C@@H](NC(=O)C2(F)CC2)C(C)(C)C)c(OCCC2CCN(C(=O)C3CCN(c4nccc(Sc5cnc(N6CCC(C)(CN)CC6)cn5)c4Cl)CC3)CC2)c1` [Example 56, (2S,4R)—N-(2-(2-(1-(1-(4-((5-(4-(aminomethyl)-4-methylpiperidin-1-yl)pyrazin-2-yl)thio)-3-chloropyridin-2-yl)piperidine-4-carbonyl)piperidin-4-yl)ethoxy)-4-(4-methylthiazol-5-yl)benzyl)-1-((S)-2-(1-fluorocyclopropane-1-carboxamido)-3,3-dimethylbutanoyl)-4-hydroxypyrrolidine-2-carboxamide], the SHP2% degradation reads like this: (0.01 μM) 55.8%; (0.1 μM) 98.6%.

Values taken from patent US20260144788A1, “COMPOUND FOR SHP2 PROTEIN DEGRADATION AND MEDICAL USES THEREOF” (UBIX THERAPEUTICS, INC., priority 2022, published 2026).
